Experimental data taken from patent US20160237044A1, “SUBSTITUTED PHENYLALANINE DERIVATIVES” (BAYER PHARMA AKTIENGESELLSCHAFT, priority 2013, published 2016).
Where a name gives a salt, the structure may show the parent alone.

How the values were obtained:
[1] = tested on: plasma; assay: Determination of anticoagulatory activity: activated partial thromboplastin time (aPTT) in plasma; assay type: biochemical, human; settings: concentration of test substance which brings about a 1.5-fold extension of the aPTT, C.K. Prest kit, 37° C.
Description: a.4) Determination of Anticoagulatory Activity
The anticoagulatory activity of the test substances is determined in vitro in human and animal plasma (for example mouse, rat, rabbit, pig and dog plasma). To this end, blood is drawn off in a mixing ratio of sodium citrate/blood of 1:9 using a 0.11 molar sodium citrate solution as receiver. Immediately after the blood has been drawn off, it is mixed thoroughly and centrifuged at about 4000 g for 15 minutes. The supernatant is pipetted off.
The activated partial thromboplastin time (aPTT) is determined in the presence of varying concentrations of test substance or the corresponding solvent using a commercial test kit (C.K. Prest from Diagnostica Stago). The test compounds are incubated with the plasma and the PTT reagent (cephalin, kaolin) at 37° C. for 3 minutes. Coagulation is then started by addition of a 25 mM aqueous calcium chloride solution, and the time when coagulation occurs is determined. The concentration of test substance which brings about a 1.5-fold extension of the aPTT is determined.

[2] = target: T1, human factor XIa (Homo sapiens, UniProt P03951); assay: Measurement of FXIa inhibition (fluorogenic peptide substrate Boc-Glu(OBzl)-Ala-Arg-AMC); assay type: biochemical; settings: factor XIa from Kordia, 15 min preincubation, 30 min at 22° C., fluorescence; read-out: IC50
T1 construct: purchased Kordia
T1 sequence (P03951 388-625 limits assumed): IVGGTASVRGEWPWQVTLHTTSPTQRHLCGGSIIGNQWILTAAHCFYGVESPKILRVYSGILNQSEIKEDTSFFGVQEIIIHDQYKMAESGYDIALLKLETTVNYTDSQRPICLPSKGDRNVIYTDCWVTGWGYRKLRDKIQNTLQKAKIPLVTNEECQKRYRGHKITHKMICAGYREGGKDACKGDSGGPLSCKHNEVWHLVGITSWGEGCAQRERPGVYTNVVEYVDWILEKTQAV
T1 sequence (P03951 19-387 partner limits assumed): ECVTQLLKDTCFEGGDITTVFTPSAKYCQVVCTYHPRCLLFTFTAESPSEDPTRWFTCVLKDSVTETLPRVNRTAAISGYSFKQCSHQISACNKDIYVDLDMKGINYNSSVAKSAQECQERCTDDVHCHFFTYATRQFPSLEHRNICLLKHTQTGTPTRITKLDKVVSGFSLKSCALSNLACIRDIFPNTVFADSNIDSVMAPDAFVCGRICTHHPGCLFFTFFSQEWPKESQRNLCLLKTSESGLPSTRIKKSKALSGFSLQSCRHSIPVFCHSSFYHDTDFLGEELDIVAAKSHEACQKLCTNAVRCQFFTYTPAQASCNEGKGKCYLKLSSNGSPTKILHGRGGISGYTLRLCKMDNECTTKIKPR
Description: a.1) Measurement of FXIa Inhibition
The factor XIa inhibition of the substances according to the invention is determined using a biochemical test system which utilizes the reaction of a peptidic factor XIa substrate to determine the enzymatic activity of human factor XIa. Here, factor XIa cleaves from the peptic factor XIa substrate the C-terminal aminomethylcoumarin (AMC), the fluorescence of which is measured. The determinations are carried out in microtitre plates.
(§1) In each case 1 μl of the diluted substance solutions is placed into the wells of white microtitre plates from Greiner (384 wells). […] After 15 min of incubation, the enzyme reaction is started by addition of 20 μl of the factor XIa substrate Boc-Glu(OBzl)-Ala-Arg-AMC dissolved in assay buffer (10 μM in assay buffer) from Bachem, the mixture is incubated at room temperature (22° C.) for 30 min and fluorescence is then measured (excitation: 360 nm, emission: 460 nm). The measured emissions of the test batches with test substance are compared to those of control batches without test substance (only dimethyl sulphoxide instead of test substance in dimethyl sulphoxide), and IC50 values are calculated from the concentration/activity relationships.

[3] = target: T2, human plasmin (Homo sapiens, UniProt P00747); assay: Measurement of plasmin inhibition (fluorogenic peptide substrate MeOSuc-Ala-Phe-Lys-AMC); assay type: biochemical; settings: plasmin from Kordia, 15 min preincubation, 30 min at 22° C., fluorescence
T2 construct: purchased Kordia
T2 sequence (P00747 581-810 limits assumed): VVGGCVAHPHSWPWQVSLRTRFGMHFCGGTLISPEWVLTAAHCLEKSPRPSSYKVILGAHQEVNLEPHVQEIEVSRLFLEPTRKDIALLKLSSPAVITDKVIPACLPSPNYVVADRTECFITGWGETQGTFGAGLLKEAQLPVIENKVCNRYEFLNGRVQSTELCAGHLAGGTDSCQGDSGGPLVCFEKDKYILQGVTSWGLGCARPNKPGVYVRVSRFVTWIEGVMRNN
T2 sequence (P00747 97-580 partner limits assumed): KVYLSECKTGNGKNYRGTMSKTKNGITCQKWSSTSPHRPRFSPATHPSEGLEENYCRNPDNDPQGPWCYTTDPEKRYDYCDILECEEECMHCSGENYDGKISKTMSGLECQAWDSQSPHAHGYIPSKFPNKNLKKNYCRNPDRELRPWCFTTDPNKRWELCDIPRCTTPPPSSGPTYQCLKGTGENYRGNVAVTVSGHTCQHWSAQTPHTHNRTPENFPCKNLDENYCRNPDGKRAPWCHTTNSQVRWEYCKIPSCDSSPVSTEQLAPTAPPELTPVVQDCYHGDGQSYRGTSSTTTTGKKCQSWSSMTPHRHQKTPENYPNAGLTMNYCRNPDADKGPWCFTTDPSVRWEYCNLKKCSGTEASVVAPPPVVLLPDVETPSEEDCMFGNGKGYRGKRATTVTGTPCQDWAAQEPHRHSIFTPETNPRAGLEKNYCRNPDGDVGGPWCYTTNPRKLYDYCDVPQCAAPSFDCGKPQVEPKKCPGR
Description: a.6) Measurement of Plasmin Inhibition
The plasmin inhibition of the inventive substances is determined using a biochemical test system which utilizes the reaction of a peptidic plasmin substrate to determine the enzymatic activity of human plasmin. Here, plasmin cleaves from the peptic plasmin substrate the C-terminal aminomethylcoumarin (AMC), the fluorescence of which is measured. The determinations are carried out in microtitre plates.
as §1, with “Test substances are dissolved in dimethyl sulphoxide and serially diluted in dimethyl sulphoxide (3000 μM to 0.0078 μM; resulting final concentrations in the test: 50 μM to 0.00013 μM). In” for “In”, “plasmin” for “factor XIa”, “MeOSuc-Ala-Phe-Lys-AMC” for “Boc-Glu(OBzl)-Ala-Arg-AMC”, “(150” for “(10”

Compound	IC50 [2] [nM]	IC50 [3] [nM]	Concentration for 1.5-fold aPTT extension [1] [µmol/L]
Cc1cc(S(=O)(=O)NC2CC2)ccc1-c1ccc(C[C@H](NC(=O)[C@H]2CC[C@H](CN)CC2)C(=O)Nc2ccc3c(=O)[nH][nH]c3c2)cc1 [Example 12, trans-4-(Aminomethyl)-N-{(2S)-3-[4′-(cyclopropylsulphamoyl)-2′-methylbiphenyl-4-yl]-1-oxo-1-[(3-oxo-2,3-dihydro-1H-indazol-6-yl)amino]propan-2-yl}cyclohexanecarboxamide hydrochloride]	2.7	30	0.04
Cc1cc(S(=O)(=O)N2CCCC2)ccc1-c1ccc(C[C@H](NC(=O)[C@H]2CC[C@H](CN)CC2)C(=O)Nc2ccc3c(=O)[nH][nH]c3c2)cc1 [Example 15, trans-4-(Aminomethyl)-N-{(2S)-3-[2′-methyl-4′-(pyrrolidin-1-ylsulphonyl)biphenyl-4-yl]-1-oxo-1-[(3-oxo-2,3-dihydro-1H-indazol-6-yl)amino]propan-2-yl}cyclohexanecarboxamide hydrochloride]	2.8	23	0.09
CS(=O)(=O)c1ccc(-c2ccc(C[C@H](NC(=O)[C@H]3CC[C@H](CN)CC3)C(=O)Nc3ccc(-c4nn[nH]n4)cc3)cc2)c(C(F)(F)F)c1 [Example 21, trans-4-(Aminomethyl)-N-[(2S)-3-[4′-(methylsulphonyl)-2′-(trifluoromethyl)biphenyl-4-yl]-1-oxo-1-{[4-(2H-tetrazol-5-yl)phenyl]amino}propan-2-yl]cyclohexanecarboxamide hydrochloride]	0.9		0.23
NC[C@H]1CC[C@H](C(=O)N[C@@H](Cc2ccc(-c3ccc(S(N)(=O)=O)cc3)cc2)C(=O)Nc2ccc(-c3nnc(Cl)[nH]3)cc2)CC1 [Example 22, trans-4-(Aminomethyl)-N-[(2S)-1-{[4-(3-chloro-4H-1,2,4-triazol-5-yl)phenyl]amino}-1-oxo-3-(4′-sulphamoylbiphenyl-4-yl)propan-2-yl]cyclohexanecarboxamide hydrochloride]	1.5		0.25
Cc1cc(C#N)ccc1-c1ccc(C[C@H](NC(=O)[C@H]2CC[C@H](CN)CC2)C(=O)Nc2ccc(-c3nn[nH]n3)cc2)cc1 [Example 23, trans-4-(Aminomethyl)-N-[(2S)-3-(4′-cyano-2′-methylbiphenyl-4-yl)-1-oxo-1-{[4-(2H-tetrazol-5-yl)phenyl]amino}propan-2-yl]cyclohexanecarboxamide hydrochloride]	1.1		0.27
Cc1cc(S(=O)(=O)N(C)C)ccc1-c1ccc(C[C@H](NC(=O)[C@H]2CC[C@H](CN)CC2)C(=O)Nc2ccc(-c3nn[nH]n3)c(F)c2)cc1 [Example 24, trans-4-(Aminomethyl)-N-[(2S)-3-[4′-(dimethylsulphamoyl)-2′-methylbiphenyl-4-yl]-1-{[3-fluoro-4-(2H-tetrazol-5-yl)phenyl]amino}-1-oxopropan-2-yl]cyclohexanecarboxamide hydrochloride]	0.4		0.27

The next lines start with results.

IC50 [2] [nM]	IC50 [3] [nM]	Compound	Concentration for 1.5-fold aPTT extension [1] [µmol/L]
2.5		NC[C@H]1CC[C@H](C(=O)N[C@@H](Cc2ccc(-c3ccc(N4CCOCC4=O)cc3)cc2)C(=O)Nc2ccc(-c3nn[nH]n3)cc2)CC1 [Example 25, trans-4-(Aminomethyl)-N-[(2S)-1-oxo-3-[4′-(3-oxomorpholin-4-yl)biphenyl-4-yl]-1-{[4-(2H-tetrazol-5-yl)phenyl]amino}propan-2-yl]cyclohexanecarboxamide hydrochloride]	0.36
4.7		CC(=O)Nc1ccc(-c2ccc(C[C@H](NC(=O)[C@H]3CC[C@H](CN)CC3)C(=O)Nc3ccc(-c4nn[nH]n4)cc3)cc2)cc1F [Example 26, trans-N-[(2S)-3-(4′-Acetamido-3′-fluorobiphenyl-4-yl)-1-oxo-1-{[4-(2H-tetrazol-5-yl)phenyl]-amino}propan-2-yl]-4-(aminomethyl)cyclohexanecarboxamide hydrochloride]	0.4
4.5		COc1ccc(-c2ccc(C[C@H](NC(=O)[C@H]3CC[C@H](CN)CC3)C(=O)Nc3ccc(-c4nn[nH]n4)cc3)cc2)c(C(F)(F)F)c1 [Example 27, trans-4-(Aminomethyl)-N-[(2S)-3-[4′-methoxy-2′-(trifluoromethyl)biphenyl-4-yl]-1-oxo-1-{[4-(2H-tetrazol-5-yl)phenyl]amino}propan-2-yl]cyclohexanecarboxamide hydrochloride]	0.21
5.2		CN(C)C1CCC(NS(=O)(=O)c2ccc(-c3ccc(C[C@H](NC(=O)[C@H]4CC[C@H](CN)CC4)C(=O)Nc4ccc5[nH]c(=O)[nH]c5c4)cc3)c(C(F)(F)F)c2)CC1 (stereo partly drawn) [Example 28, trans-4-(Aminomethyl)-N-{(2S)-3-[4′-{[4-(dimethylamino)cyclohexyl]sulphamoyl}-2′-(trifluoromethyl)biphenyl-4-yl]-1-oxo-1-[(2-oxo-2,3-dihydro-1H-benzimidazol-5-yl)amino]propan-2-yl}cyclohexanecarboxamide hydrochloride]	0.06
